This note sets out measurements from EP4667458A1 (Kanaph Therapeutics Inc., priority 2023, dated 2024).

The target of this assay is T1, SOS1 (Homo sapiens, UniProt Q07889).
T1 construct: adding equal amounts of HIS-SOS1cat (160 nM; Cytoskeleton, US); His; purchased Cytoskeleton, US
T1 sequence (Q07889 564-1049 limits assumed): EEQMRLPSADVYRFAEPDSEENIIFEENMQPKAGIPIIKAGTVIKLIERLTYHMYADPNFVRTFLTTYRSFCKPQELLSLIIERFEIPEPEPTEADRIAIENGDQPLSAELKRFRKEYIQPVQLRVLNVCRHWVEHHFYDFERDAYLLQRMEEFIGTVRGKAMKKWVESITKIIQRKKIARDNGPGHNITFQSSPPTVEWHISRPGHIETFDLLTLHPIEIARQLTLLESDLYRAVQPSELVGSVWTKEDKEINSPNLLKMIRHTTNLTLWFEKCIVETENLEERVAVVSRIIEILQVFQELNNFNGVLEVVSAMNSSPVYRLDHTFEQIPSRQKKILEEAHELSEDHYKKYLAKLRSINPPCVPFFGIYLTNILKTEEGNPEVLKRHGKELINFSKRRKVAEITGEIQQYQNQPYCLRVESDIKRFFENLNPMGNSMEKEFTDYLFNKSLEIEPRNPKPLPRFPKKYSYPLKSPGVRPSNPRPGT
Description: SOS-catalyzed nucleotide exchange assay (HTRF, SOS1-mediated GTP loading of KRAS G12D). The format is biochemical. Conditions: GST-KRAS G12D, HIS-SOS1cat, EDA-GTP-DY-647P1; compound 128 pM to 10 µM; read-out: SOS-catalyzed nucleotide exchange assay (IC50 range, Grade). How it is done: SOS1 activity was measured by SOS1-mediated GTP loading quantification of KRAS^G12D. GTP-loaded KRAS^G12D was detected by HTRF (Homogeneous Time Resolved Fluorescence) using anti-GST terbium (Cisbio, France) as a donor and a fluorescence GTP analogue (EDA-GTP-DY-647P1, [DY-647P1-labeled 2'/3'-O-(2-aminoethyl-carbamoyl)guanosine-5'-triphosphate (Jena bioscience, Germany)]) as an acceptor.
Assay buffer was composed of 10 mM HEPES pH 7.4, 150 mM NaCl, 5 mM MgCl2, 1 mM DTT, 0.05% BSA Fraction V pH 7.0 (Sigma) and 0.0025% (v/v) Igepal (Sigma). KRAS^G12D working solution was prepared by adding equal amounts of GST-KRAS^G12D (100 nM) and anti-GST-terbium (2 nM; Cisbio, France) to the assay buffer and incubating on ice for 10 minutes. SOS1cat working solution was prepared by adding equal amounts of HIS-SOS1cat (160 nM; Cytoskeleton, US) and EDA-GTP-DY-647P1 (200 nM; Jena bioscience, Germany) to the assay buffer. Control solution was prepared by adding equal volumes of EDA-GTP-DY-647P1 and the assay buffer for normalization control to exclude GEF-independent GTP loading and background signals. In order to induce a reaction, 5 µL of the SOS1cat working solution or the control solution was injected into each well. 5 µL of a compound having various concentrations from 128 pM to 10 µM was added to wells containing the SOS1cat working solution and incubated at room temperature for 10 minutes to bind to SOS1.
10 µL of the KRAS^G12D solution was added to each well and incubated for 30 minutes at room temperature while shaking. HTRF was measured using a Thermo Varioskan (excitation 334 nm, emission 665 nm). The IC50 of each inhibitor was analyzed using Graphad Prism.
The SOS1 inhibitory activity of the Example compounds measured by the above method was evaluated based on the following criteria, and the results are shown in Table 29.
As for `C[C@@H](NC(=O)c1ccc(=O)n(-c2ccccc2)n1)c1cccc([Si](C)(C)C)c1` [Example 61, 6-oxo-1-phenyl-N-[(1R)-1-(3-trimethylsilylphenyl)ethyl]pyridazine-3-carboxamide], the IC50 is 1000 to 10000 nM.

Take `C[C@@H](NC(=O)c1ccc(=O)n(-c2ccccc2)n1)c1ccc2ccccc2c1` [Example 8, N-[(1R)-1-(2-naphthyl)ethyl]-6-oxo-1-phenyl-pyridazine-3-carboxamide]: the IC50 lay in the range of 1000 to 10000 nM.

`COc1ccc(-n2nc(C(=O)N[C@H](C)c3cc(N)cc(C(F)(F)F)c3)ccc2=O)cc1` [Example 30, N-[(1R)-1-[3-amino-5-(trifluoromethyl)phenyl]ethyl]-1-(4-methoxyphenyl)-6-oxo-pyridazine-3-carboxamide]: the IC50 was less than 1000 nM.

Consider `C[C@@H](NC(=O)c1ccc(=O)n(-c2ccccc2F)n1)c1cc(N)cc(C(F)(F)F)c1` [Example 46, (R)-N-(1-(3-amino-5-(trifluoromethyl)phenyl)ethyl)-1-(2-fluorophenyl)-6-oxo-1,6-dihydropyridazine-3-carboxamide], for which the IC50 was less than 1000 nM.

Regarding `CC(=O)Nc1cccc(-n2nc(C(=O)N[C@H](C)c3cccc(C(F)(F)CO)c3)ccc2=O)c1` [Example 53, 1-(3-acetamidophenyl)-N-[(1R)-1-[3-(1,1-difluoro-2-hydroxyethyl)phenyl]ethyl]-6-oxo-pyridazine-3-carboxamide], the IC50 lay within 1000 to 10000 nM.

Turning to `COc1ccc(-n2nc(C(=O)N[C@H](C)c3cccc(C(F)(F)CO)c3F)ccc2=O)cc1` [Example 42, (R)-N-(1-(3-(1,1-difluoro-2-hydroxyethyl)-2-fluorophenyl)ethyl)-1-(4-methoxyphenyl)-6-oxo-1,6-dihydropyridazine-3-carboxamide], the IC50 is less than 1000 nM.

Regarding `C[C@@H](NC(=O)c1nn(-c2ccccc2)c(=O)cc1C1CC1)c1cc(N)cc(C(F)(F)F)c1` [Example 55, (R)-N-(1-(3-amino-5-(trifluoromethyl)phenyl)ethyl)-4-cyclopropyl-6-oxo-1-phenyl-1,6-dihydropyridazine-3-carboxamide], the IC50 was less than 1000 nM.

In the case of `C[C@@H](NC(=O)c1cc(C2CC2)c(=O)n(-c2ccccc2)n1)c1cc(N)cc(C(F)(F)F)c1` [Example 54, (R)-N-(1-(3-amino-5-(trifluoromethyl)phenyl)ethyl)-5-cyclopropyl-6-oxo-1-phenyl-1,6-dihydropyridazine-3-carboxamide], the IC50 was less than 1000 nM.

Regarding `Cc1ccc([C@@H](C)NC(=O)c2ccc(=O)n(-c3ccccc3)n2)cc1` [Example 7, (R)-6-oxo-1-phenyl-N-(1-(p-tolyl)ethyl)-1,6-dihydropyridazine-3-carboxamide], the 50% inhibitory concentration (IC50) was greater than 10000 nM.

For the molecule `C[C@@H](NC(=O)c1ccc(=O)n(-c2cccnc2)n1)c1cc(N)cc(C(F)(F)F)c1` [Example 26, (R)-N-(1-(3-amino-5-(trifluoromethyl)phenyl)ethyl)-6-oxo-1-(pyridin-3-yl)-1,6-dihydropyridazine-3-carboxamide], the IC50 is less than 1000 nM.

For the molecule `C[C@@H](NC(=O)c1ccc(=O)n(-c2ccccc2)n1)c1cccc(OC(F)(F)F)c1` [Example 10, 6-oxo-1-phenyl-N-[(1R)-1-[3-(trifluoromethoxy)phenyl]ethyl]pyridazine-3-carboxamide], the IC50 lay in the range of 1000 to 10000 nM.

`C[C@@H](NC(=O)c1ccc(=O)n(-c2cccc(N3CCN(C)C3=O)c2)c1)c1cc(N)cc(C(F)(F)F)c1` [Example 89, N-[(1R)-1-[3-amino-5-(trifluoromethyl)phenyl]ethyl]-1-[3-(3-methyl-2-oxo-imidazolidin-1-yl)phenyl]-6-oxo-pyridine-3-carboxamide]: the IC50 is less than 1000 nM.

For `C[C@@H](NC(=O)c1ccc(=O)n(C2CCN(S(C)(=O)=O)CC2)n1)c1cccc(Cl)c1` [Example 19, (R)-N-(1-(3-chlorophenyl)ethyl)-1-(1-(methylsulfonyl)piperidin-4-yl)-6-oxo-1,6-dihydropyridazine-3-carboxamide], the IC50 is 1000 to 10000 nM.

Take `C[C@@H](NC(=O)c1ccc(=O)n(C2CCCC2)n1)c1cc(N)cc(C(F)(F)F)c1` [Example 115, N-[(1R)-1-[3-amino-5-(trifluoromethyl)phenyl]ethyl]-1-cyclopentyl-6-oxo-1,6-dihydropyridazine-3-carboxamide]: the IC50 was in the range of 1000 to 10000 nM.

Regarding `C[C@@H](NC(=O)c1ccc(=O)n(C2CCOCC2)n1)c1cccc(Cl)c1` [Example 17, N-[(1R)-1-(3-chlorophenyl)ethyl]-6-oxo-1-tetrahydropyran-4-yl-pyridazine-3-carboxamide], the IC50 was in the range of 1000 to 10000 nM.

Consider `C[C@@H](NC(=O)c1ccc(=O)n(-c2ccccc2OC(F)(F)F)n1)c1cccc(C(F)(F)CO)c1F` [Example 44, (R)-N-(1-(3-(1,1-difluoro-2-hydroxyethyl)-2-fluorophenyl)ethyl)-6-oxo-1-(2-(trifluoromethoxy)phenyl)-1,6-dihydropyridazine-3-carboxamide], for which the IC50 is less than 1000 nM.

Turning to `C[C@@H](NC(=O)c1cn(-c2ccccc2)c(=O)cn1)c1cc(N)cc(C(F)(F)F)c1` [Example 63, N-[(1R)-1-[3-amino-5-(trifluoromethyl)phenyl]ethyl]-5-oxo-4-phenyl-pyrazine-2-carboxamide], the IC50 lay in the range of 1000 to 10000 nM.

For `C[C@@H](NC(=O)c1ccc(=O)n(-c2ccncc2)n1)c1cc(N)cc(C(F)(F)F)c1` [Example 21, N-[(1R)-1-[3-amino-5-(trifluoromethyl)phenyl]ethyl]-6-oxo-1-(4-pyridyl)pyridazine-3-carboxamide], the IC50 was less than 1000 nM.

Take `C[C@@H](NC(=O)c1ccc(=O)n(C2=CCOCC2)n1)c1cc(N)cc(C(F)(F)F)c1` [Example 128, N-[(1R)-1-[3-amino-5-(trifluoromethyl)phenyl]ethyl]-1-(3,6-dihydro-2H-pyran-4-yl)-6-oxo-1,6-dihydropyridazine-3-carboxamide]: the half-inhibitory concentration (IC50) is less than 1000 nM.

In the case of `C[C@@H](NC(=O)c1ccc(=O)n(-c2ccccc2)n1)c1cccc(Br)c1` [Example 2, N-[(1R)-1-(3-bromophenyl)ethyl]-6-oxo-1-phenyl-pyridazine-3-carboxamide], the IC50 lay in the range of 1000 to 10000 nM.

Take `C[C@@H](NC(=O)c1ccc(=O)n(C2=CCN(S(C)(=O)=O)CC2)c1)c1cc(N)cc(C(F)(F)F)c1` [Example 74, N-[(1R)-1-[3-amino-5-(trifluoromethyl)phenyl]ethyl]-1'-methanesulfonyl-6-oxo-2',3'-dihydro-1'H,6H,6'H-[1,4'-bipyridine]-3-carboxamide]: the IC50 is less than 1000 nM.

`C[C@@H](NC(=O)c1ccc(=O)n(-c2c(F)cccc2F)c1)c1cc(N)cc(C(F)(F)F)c1` [Example 97, N-[(1R)-1-[3-amino-5-(trifluoromethyl)phenyl]ethyl]-1-(2,6-difluorophenyl)-6-oxo-1,6-dihydropyridine-3-carboxamide]: the IC50 lay within 1000 to 10000 nM.

Take `C[C@@H](NC(=O)c1ccc(=O)n(-c2ccccc2)n1)c1cccc(C2CC2)c1` [Example 14, N-[(1R)-1-(3-cyclopropylphenyl)ethyl]-6-oxo-1-phenyl-pyridazine-3-carboxamide]: the IC50 lay in the range of 1000 to 10000 nM.

For `C[C@@H](NC(=O)c1ccc(=O)n(-c2ccccc2)n1)c1cccc(C(F)(F)CO)c1F` [Example 59, N-[(1R)-1-[3-(1,1-difluoro-2-hydroxy-ethyl)-2-fluoro-phenyl]ethyl]-6-oxo-1-phenyl-pyridazine-3-carboxamide], the half-inhibitory concentration (IC50) was less than 1000 nM.

In the case of `Cc1cccc([C@@H](C)NC(=O)c2ccc(=O)n(-c3ccccc3)n2)c1` [Example 3, (R)-6-oxo-1-phenyl-N-(1-(m-tolyl)ethyl)-1,6-dihydropyridazine-3-carboxamide], the IC50 was greater than 10000 nM.

For `Cc1cc(-n2nc(C(=O)N[C@H](C)c3cc(N)cc(C(F)(F)F)c3)ccc2=O)cs1` [Example 27, (R)-N-(1-(3-amino-5-(trifluoromethyl)phenyl)ethyl)-1-(5-methylthiophen-3-yl)-6-oxo-1,6-dihydropyridazine-3-carboxamide], the IC50 is less than 1000 nM.
